Biological target: T1, Protein-tyrosine phosphatase 1B (PTP1B) (Homo sapiens, UniProt P18031)
T1 construct: gene PTPN1
T1 sequence (P18031 1-435): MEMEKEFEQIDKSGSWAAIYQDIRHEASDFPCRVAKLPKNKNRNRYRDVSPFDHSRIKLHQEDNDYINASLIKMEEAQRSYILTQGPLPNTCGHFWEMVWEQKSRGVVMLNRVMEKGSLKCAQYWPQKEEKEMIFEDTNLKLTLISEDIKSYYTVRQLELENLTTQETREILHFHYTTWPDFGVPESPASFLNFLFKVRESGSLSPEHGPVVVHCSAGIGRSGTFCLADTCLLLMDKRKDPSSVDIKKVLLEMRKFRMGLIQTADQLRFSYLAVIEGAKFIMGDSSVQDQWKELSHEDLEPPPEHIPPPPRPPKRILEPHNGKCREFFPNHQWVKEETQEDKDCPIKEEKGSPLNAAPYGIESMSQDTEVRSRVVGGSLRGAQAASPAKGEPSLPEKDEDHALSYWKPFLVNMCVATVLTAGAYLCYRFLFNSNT
Test: pNPP dephosphorylation assay with human recombinant PTP1B; Lineweaver-Burk and Dixon plots
Format: biochemical

Ki: 13.7 ± 2.72 µM
Structure (SMILES): C=C[C@@]1(C)CCC2=C(C1)C(=O)C[C@H]1C(C)(C)C[C@H](O)C[C@]21C [compound 1, 2α-hydroxy-7-oxo-pimara-8(9),15-diene]

— article PMC7587383, “Pimarane Diterpenoids from the Seeds of Caesalpinia minax as PTP1B Inhibitors and Insulin Sensitizers” (Molecules, 2020)
